According to ChEMBL document CHEMBL2346639, “A new dehydroabietic acid-based arylamine fluorescent probe: Synthesis, structure analysis and in vitro biodiagnose function” (Bioorg Med Chem Lett, 2013):

What was measured:
SGC-7901 = assay: Cellular uptake in human SGC7901 cells after 4 hrs by fluorescence microscopic analysis; format: ADME, cell-based; details: sgc-7901, 4 h
[1] = Photostability of the compound in dichloromethane at 1 x 10^-6 M measured after UV-irradiation by fluorescence spectra analysis; format: physicochemical; details: 1 µM
[2] = Photostability of the compound in water at 10 uM measured 30 mins after UV-irradiation by fluorescence spectra analysis; format: physicochemical; details: buffer, 0.5 h
[3] = Cytotoxicity against human HeLa cells assessed as cell survival at 1 uM after 24 hrs by MTT assay relative to control; format: cell-based; details: read-out: Survival
[4] = Cytotoxicity against human A549 cells assessed as cell survival at 1 uM after 24 hrs by MTT assay relative to control; format: cell-based; details: read-out: Survival
A549 [5] = assay: Cytotoxicity against human A549 cells assessed as effect on cell survival at 5 to 25 uM after 24 hrs by MTT assay; format: cell-based; details: a549, 24 h
[6] = Cytotoxicity against human SGC7901 cells assessed as cell survival at 1 uM after 24 hrs by MTT assay relative to control; format: cell-based; details: SGC-7901 cells, read-out: Survival
[7] = Cellular uptake in human SGC7901 cells cytoplasm after 4 hrs by fluorescence microscopic analysis; format: ADME, cell-based; details: sgc-7901, 4 h
A549 [8] = assay: Cellular uptake in human A549 cells after 4 hrs by fluorescence microscopic analysis; format: ADME, cell-based; details: a549, 4 h
SMMC-7721 = assay: Cellular uptake in human SMMC7721 cells after 4 hrs by fluorescence microscopic analysis; format: ADME, cell-based; details: smmc-7721, 4 h
[9] = Photostability of the compound in water at 1 x 10^-6 M measured after UV-irradiation by fluorescence spectra analysis; format: physicochemical; details: buffer, 1 µM
[10] = Solubility of the compound in water; format: physicochemical
HeLa = assay: Cellular uptake in human HeLa cells after 4 hrs by fluorescence microscopic analysis; format: ADME, cell-based
[11] = Cellular uptake in human SMMC7721 cells cytoplasm after 4 hrs by fluorescence microscopic analysis; format: ADME, cell-based; details: smmc-7721, 4 h
[12] = Photostability of the compound in methanol at 1 x 10^-6 M measured after UV-irradiation by fluorescence spectra analysis; format: physicochemical; details: 1 µM
[13] = Cellular uptake in human HeLa cells cytoplasm after 4 hrs by fluorescence microscopic analysis; format: ADME, cell-based
[14] = Cellular uptake in human A549 cells cytoplasm after 4 hrs by fluorescence microscopic analysis; format: ADME, cell-based; details: a549, 4 h
[15] = Cytotoxicity against human SMMC7721 cells assessed as cell survival at 1 uM after 24 hrs by MTT assay relative to control; format: cell-based; details: SMMC-7721 cells, read-out: Survival
[16] = Photostability of the compound in DMSO at 1 x 10^-6 M measured after UV-irradiation by fluorescence spectra analysis; format: physicochemical; details: 1 µM

COC(=O)[C@]1(C)CCC[C@]2(C)c3ccc(Nc4cccc5ccccc45)cc3CC[C@@H]12
Drug uptake (SGC-7901): Active
Stability [1]: Unstable
Stability [2]: Stable
viability at 24 h, 1 µM [3]: 97.3%
viability at 24 h, 1 µM [4]: 93.1%
Activity (A549 [5]): Non-toxic
viability at 24 h, 1 µM [6]: 94.5%
Drug uptake [7]: Active
Drug uptake (A549 [8]): Active
Drug uptake (SMMC-7721): Active
Stability [9]: Stable
solubility [10]: > 15 µM
Drug uptake (HeLa): Active
Drug uptake [11]: Active
Stability [12]: Unstable
Drug uptake [13]: Active
Drug uptake [14]: Active
viability at 24 h, 1 µM [15]: 96%
Stability [16]: Unstable
